Assays:
[1] = Fluorescence spectra / optical properties; type: physicochemical; design: key to Brightness: ++++: very bright; +++: bright; ++: moderate brightness; +: weak
Experimental: Computations. In vitro fluorescence quenching studies were carried out at peak excitation and emission wavelengths. Microliter aliquots of the sodium salt of the quenching anion (1 M) were added to indicator solution in 5 mM sodium phosphate (pH 7.2, unless indicated otherwise). Fluorescence intensities in the absence (Fo) and presence (F) of quencher anion ([Q]) were measured to give the Stem-Volmer constant (Kq) as defined by:
Fluorescence spectra reveal that LZQ and LMQ have broad excitation and emission peaks with maxima at 424 and 528 nm, respectively. The molar extinction coefficient of LZQ was 11,100 M^-1 cm^-1 at 424 nm and the quantum yield in the absence of I^- was 0.53. Stem-Volmer plots for quenching of LZQ and LMQ by I^- and Cl^-, with data for SPQ shown for comparison, were generated. In water (or saline), LZQ fluorescence was quenched by I^- with a Stem-Volmer constant of 60 M^-1. LZQ fluorescence was not quenched (Stem-Volmer constant <1 M^-1) by Cl^-, NO3^-, phosphate, acetate, Na^+ and K^+. LZQ fluorescence and I^- sensitivity were not affected by pH changes in the range 4.5-8.

[2] = tested on: cells; assay: Chemical stability in cells (thin layer chromatography of lysates); type: cell-based; settings: TLC of lysates from loaded cells
Experimental: LZQ and LMQ were loaded into cells efficiently by hypotonic shock or passive incubation. […] As was found for SPQ, LZQ and LMQ were non-toxic to cells in assays of cell growth (2 mM in culture medium for 72 h).

[3] = Fluorescence lifetime in water; type: physicochemical
Experimental: Time resolved fluorescence measurements. Fluorescence lifetime and anisotropy decay measurements were carried out in the frequency domain by cuvette fluorimetry using a Fourier transform fluorimeter (48000 MHF, SLM Instruments, Urbana, Ill.) or by fluorescence microscopy using epifluorescence microscope optics in place of the cuvette compartment (Verkman et al., 1991). For microscopy measurements, impulse-modulated vertically polarized light (442 nm, He--Cd laser 35 mwatts) was reflected onto the sample by a 510 nm dichroic mirror and objective lens; emitted fluorescence was filtered by a 515 nm barrier filter and passed through a rotatable analyzing calcite polarizer. In some experiments, a biconcave lens was introduced just in front of the dichroic mirror to diverge beam diameter in the focal plane to […].
Analysis of lifetime and time-resolved anisotropy was performed by a comparative approach. Generally six pairs of measurements (each acquisition 8 s) were obtained, comparing sample and reference (fluorescein in 0.1 N NaOH, lifetime 4.0 ns) for measurement of lifetime, and parallel and perpendicular orientations of the emission polarizer for measurement of anisotropy decay. […] Median phase and modulation values for paired data were analyzed by nonlinear least-squares for determination of lifetimes and rotational correlation times.

- emission maximum [1]: 528 nm
- excitation maximum [1]: 424 nm
- Brightness ([1]; Table 4): +++
- λem (emission wavelength) ([1]; Table 4): 528 nm
- λex (excitation wavelength) ([1]; Table 4): 424 nm
- molar extinction coefficient ([1]; at 424 nm): 11,100 M^-1 cm^-1
- quantum yield ([1]; in the absence of I^-): 0.53
- effect of pH on fluorescence ([1]; pH 4.5-8): not affected
- chemical stability in cells [2]: remained chemically stable in cells
- fluorescence lifetime ([3]; in water, absence of I^-): 7.1 ns
- quenching mechanism (lifetime decrease with [I^-]) ([3]; increasing [I^-]): collisional mechanism
Structure (SMILES): [O-]c1nc2c(N[C@@H]3O[C@H](CO)[C@@H](O)[C@H]3O)ncnc2[n+]2ccccc12 [I, 4-(β-D-ribofuranosylamino)-pyrido [2,1-h] pteridin-11-ium-5-olate]

Reference: patent US6201116A, “Halide indicators” (The Regents of the University of California, priority 1999, dated 2001)
